Values of other authors in patent US20160296627A1, “INTRACAMERAL IMPLANT FOR TREATMENT OF AN OCULAR CONDITION” (Envisia Therapeutics Inc., priority 2013, published 2016).

Target: Cloned Human Ciliary Body FP Prostaglandin Receptor (Homo sapiens, UniProt P43088)
Settings: Sharif et al. 2002, read-out: Functional Potency, EC50

Sequence of Cloned Human Ciliary Body FP Prostaglandin Receptor (P43088 whole entry): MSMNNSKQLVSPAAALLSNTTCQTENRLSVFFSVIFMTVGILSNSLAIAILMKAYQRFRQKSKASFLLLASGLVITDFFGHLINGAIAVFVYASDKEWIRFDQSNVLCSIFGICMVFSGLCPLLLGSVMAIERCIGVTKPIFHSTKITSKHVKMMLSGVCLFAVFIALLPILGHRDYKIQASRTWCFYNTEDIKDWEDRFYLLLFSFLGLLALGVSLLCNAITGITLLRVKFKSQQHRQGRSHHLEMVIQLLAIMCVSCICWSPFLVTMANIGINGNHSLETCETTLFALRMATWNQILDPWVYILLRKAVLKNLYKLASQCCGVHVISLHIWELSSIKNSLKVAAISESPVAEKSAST

In order of falling EC50:
1. CCNC(=O)CCC/C=C\C[C@@H]1[C@@H](/C=C/[C@@H](O)CCc2ccccc2)[C@H](O)C[C@@H]1O [Bimatoprost]  694 nM
2. CC(C)OC(=O)CCC/C=C\C[C@@H]1[C@@H](CC[C@@H](O)CCc2ccccc2)[C@H](O)C[C@@H]1O [Latanoprost]  126 nM
3. O=C(O)CCC/C=C\C[C@@H]1[C@@H](CC[C@@H](O)CCc2ccccc2)[C@H](O)C[C@@H]1O [Latanoprost acid]  54.6 nM
4. CC(C)OC(=O)CCC/C=C\C[C@@H]1[C@@H](/C=C/[C@@H](O)COc2cccc(C(F)(F)F)c2)[C@H](O)C[C@@H]1O [Travoprost, propan-2-yl 7-[3,5-dihydroxy-2-[3-hydroxy-4-[3-(trifluoromethyl)phenoxy]-but-1-enyl]-cyclopentyl]hept-5-enoate]  42.3 nM
5. O=C(O)CCC/C=C\C[C@@H]1[C@@H](/C=C/[C@@H](O)CCc2ccccc2)[C@H](O)C[C@@H]1O [Bimatoprost acid]  5.8 nM
6. O=C(O)CCCC=CCC1C(O)CC(O)C1C=CC(O)COc1cccc(C(F)(F)F)c1 (stereo not drawn) [Travoprost acid]  3.2 nM
